Patent US20070148710A1, “Cpt resistant cell line” (priority 2003, published 2007)
≈ marks a conversion by molar mass, not a printed value. Values belong to the molecule of their own block, whether it stands above or below them.

Columns and labels:
Type in all cases: cell-based, human
SW948 = test: cell proliferation assay, cross-resistance to topoisomerase I and II inhibitors; settings: SW948 parental, mean ± SD, 2-4 independent assays; for IC50: Homo sapiens, read-out: Sensitivity expressed as IC50
Excerpt: (§1) Drug resistance to other topoisomerase I and II inhibitors was examined by determining the IC50 dose of each drug using a cell proliferation assay as shown in Table 3.

SW948CPTH = test: as above; settings: for change in resistance of SW948CPTH cells compared to the parental cell line SW948: IC50 by cell proliferation assay (Table 3); for IC50: Homo sapiens, read-out: Sensitivity expressed as IC50
Excerpt: as §1

SW948CPTH cells [1] = test: intracellular pH (BCECF fluorescence)
Protocol: 12. […] Cells were plated on glass coverslips and cultured overnight.

SW948CPTH cells [2] = test: change of CPT-11 IC50 (clonogenic assay) by verapamil, amiloride or EIPA
Protocol: (§2) 10. […] Cells were washed, trypsinized, and counted. Cell pellets were lysed with water and sonicated. […] Results were generated from three independent experiments. […] Data are expressed as mean±SD. […] Data are the mean±SD of two experiments done in triplicate.
12. […] Cells were plated on glass coverslips and cultured overnight. Intracellular pH was measured with a fluorescence spectrophotometer after cells were loaded with the pH-sensitive fluorescence dye, BCECF. The data represent the mean±SD of 60 individual cells. […] After 24 h the drugs were removed, cells washed with PBS and drug-free culture medium added to the cell cultures. Data represent the mean±SD from three assays done in triplicate with SW948CPTH cells and two assays done in triplicate for SW948CPTL cells.

SW948CPTL = test: cell proliferation assay, cross-resistance to topoisomerase I and II inhibitors
Excerpt: as §1

SW948CPTL cell line = test: SN38 IC50 determination
SW948CPTH cell line = test: SN38 IC50 determination
SW948 cell line = test: SN38 IC50 determination
SW948CPTH cells [3] = test: intracellular accumulation of CPT-11 (HPLC), effect of verapamil; settings: SW948CPTH; 10 μM verapamil with CPT-11 160 μM, 2 hours
Excerpt: as §2
(§3) Additionally, multidrug resistance can be evaluated by measuring the expression level of p-glycoprotein (p-gp) (Juliano et al Biochim Biophys Acta 11:152-162, 1976) and breast cancer resistant protein (BCRP) (Doyle et al Proc Natl Acad Sci U S A 95:15665-15670, 1998) in SW948 and the resistant SW948 cell lines (SW948CPTH and SW948CPTL). It is understood that the disclosed methods can also be used with other cell lines including other colon cancer cell lines. For example, the disclosed methods can be used with LS174T, WiDr, HT-29, SW403, DLD-1, SW480, SNU-C1, Caco-2, and COLO 205 cell lines.

SW948CPTL cells = test: as above; settings: SW948CPTL
Excerpt: as §2, §3

Compound: CC[C@@]1(O)C(=O)OCc2c1cc1n(c2=O)Cc2cc3cc(O)ccc3nc2-1 [10-OH-CPT]
- Sensitivity expressed as IC50 (SW948): 0.4 ± 0.3 µg/mL
- change in resistance of SW948CPTH cells compared to the parental cell line SW948 (SW948CPTH): increased resistance
- Sensitivity expressed as IC50 (SW948CPTH; SW948CPTH treated with 20 μg/ml CPT-11 for 62 days, then >22 days without CPT-11, mean ± SD): 2.1 ± 1.0 µg/mL

Compound: N=C(N)NC(=O)c1nc(Cl)c(N)nc1N [Amiloride]
- effect on intracellular pH (SW948CPTH cells [1]): lowered
- intracellular pH in the presence of amiloride (SW948CPTH cells [1]; from about 6.98 without amiloride (FIG. 8A)): about 6.85
- effect on resistance of the cells to CPT-11 (SW948CPTH cells [2]; SW948CPTH, amiloride 300 μM with CPT-11 24 h (FIG. 8B)): decreased the resistance

Compound: CC[C@@]1(O)C(=O)OCc2c1cc1n(c2=O)Cc2cc3ccccc3nc2-1 [CPT]
- IC50 (SW948): 0.1 ± 0.1 µg/mL (≈ 0.287 µM)
- IC50 (SW948CPTH): 0.6 ± 0.6 µg/mL (≈ 1.72 µM)
- change in resistance of SW948CPTH cells compared to the parental cell line SW948 (SW948CPTH): increased resistance

Compound: CCN(c1nc(N)c(C(=O)N=C(N)N)nc1Cl)C(C)C [EIPA, 5-(N-ethyl-N-isopropyl)amiloride]
- effect on resistance of cells to CPT-11 (SW948CPTH cells [2]; EIPA 3 or 10 μM with CPT-11 24 h, FIG. 8B covers SW948CPTH and SW948CPTL): decreased the resistance

- IC50 (SW948CPTL; Homo sapiens, read-out: Sensitivity expressed as IC50): 1.8 ± 0.3 µg/mL (≈ 3.06 µM)
- IC50 (SW948CPTH): 0.9 ± 0.1 µg/mL (≈ 1.53 µM)
Compound: COc1cc([C@@H]2c3cc4c(cc3[C@@H](O[C@@H]3O[C@@H]5CO[C@@H](C)O[C@H]5[C@H](O)[C@H]3O)[C@H]3COC(=O)[C@H]23)OCO4)cc(OC)c1O [Etoposide]
- IC50 (SW948): 0.9 ± 0.1 µg/mL (≈ 1.53 µM)
- increase in resistance by SW948CPTL cells compared to the parental cell line SW948 (SW948CPTL; IC50 by cell proliferation assay (Table 3)): 2 fold
- change in resistance of SW948CPTH cells compared to the parental cell line SW948 (SW948CPTH): no change in resistance

- IC50 (SW948CPTH): 0.8 ± 0.2 µg/mL (≈ 3.3 µM)
Compound: CC1(C)CCC2=C(O1)c1ccccc1C(=O)C2=O [Lapachone]
- IC50 (SW948): 1.1 ± 0.2 µg/mL (≈ 4.54 µM)
- change in resistance of SW948CPTH cells compared to the parental cell line SW948 (SW948CPTH): No change

Compound: CCc1c2c(nc3ccc(O)cc13)-c1cc3c(c(=O)n1C2)COC(=O)[C@]3(O)CC [SN38]
- SN38 IC50 (SW948CPTL cell line): 1.8 ± 0.2 µg/mL
- SN38 IC50 (SW948CPTH cell line): 1.5 ± 0.1 µg/mL
- SN38 IC50 (SW948 cell line): 0.2 ± 0.01 µg/mL

Compound: COc1ccc(CCN(C)CCCC(C#N)(c2ccc(OC)c(OC)c2)C(C)C)cc1OC (stereo not drawn) [Verapamil]
- effect on intracellular concentration of CPT-11 (SW948CPTH cells [3]): increased the intracellular concentration of CPT-11 to a level similar to the SW948 parent cells
- intracellular concentration of CPT-11 with verapamil relative to SW948 parent cells (SW948CPTL cells; 10 μM verapamil): 2.4 times
- effect on intracellular concentration of CPT-11 (SW948CPTL cells; 10 μM verapamil with CPT-11 160 μM, 2 hours): increased
